SMILES strings stand for the structures. pIC50: −log10 of the molar value.

The values below come from patent US20150239889A1, “PYRAZOLOPYRIMIDINE COMPOUND” (MITSUBISHI TANABE PHARMA CORPORATION, priority 2012, published 2015).

In one test the test system is Hep3B cells. Put plainly: EPO production assay (ELISA of culture supernatant). The class given is cell-based. The conditions noted are these: Homo sapiens, 3 μmol/L test compound, 48 hours, relative to control (0.1% DMSO), read-out: EPO production stimulation rate with 3 μmol/L test compound. In outline: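 Values are fold EPO production at 3 μmol/L compound relative to untreated control, quantified by ELISA of culture supernatant. Hep3B cells were exposed for 48 h in MEM containing 0.5% FBS and 0.1% DMSO.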
In general terms: In an ELISA, binding on a coated surface is turned into a signal by an enzyme label.

Another test concerns the target T1, human HIF-PHD3 (Homo sapiens, UniProt Q9H6Z9).
T1 construct: purchased CrystalGenomics Ltd
Briefly: HIF-PHD inhibition assay (fluorescence polarization), human HIF-PHD3. The class given is biochemical. The conditions noted are these: 2-oxoglutaric acid 166 μmol/L. The essentials:
(§1)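 Measured signal: mP difference, after versus before enzyme addition, representing enzyme activity. Detection relied on a FAM-tagged, ACA-spaced fluorescent probe.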
In general terms: In fluorescence polarisation assays a small probe gives low polarisation when free and higher when bound to something large.

A further test has as its target T2, human HIF-PHD2 (Homo sapiens, UniProt Q9GZT9).
T2 construct: purchased CrystalGenomics Ltd
Briefly: HIF-PHD inhibition assay (fluorescence polarization), human HIF-PHD2. The class given is biochemical. The conditions noted are these: 2-oxoglutaric acid 3.33 μmol/L. The essentials: as §1

T2 sequence (Q9GZT9 2-426 limits assumed): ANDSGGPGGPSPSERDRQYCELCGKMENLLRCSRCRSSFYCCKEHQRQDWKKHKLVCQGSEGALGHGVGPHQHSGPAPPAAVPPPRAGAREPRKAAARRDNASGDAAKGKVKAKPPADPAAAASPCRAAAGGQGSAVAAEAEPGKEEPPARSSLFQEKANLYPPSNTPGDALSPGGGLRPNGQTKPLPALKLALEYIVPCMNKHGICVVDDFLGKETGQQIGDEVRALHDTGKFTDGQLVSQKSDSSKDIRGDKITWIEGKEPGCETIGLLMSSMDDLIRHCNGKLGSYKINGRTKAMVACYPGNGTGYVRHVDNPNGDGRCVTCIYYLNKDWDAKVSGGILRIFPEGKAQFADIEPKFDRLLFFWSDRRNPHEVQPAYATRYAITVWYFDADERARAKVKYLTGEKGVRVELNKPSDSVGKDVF
T1 sequence (Q9H6Z9 whole entry): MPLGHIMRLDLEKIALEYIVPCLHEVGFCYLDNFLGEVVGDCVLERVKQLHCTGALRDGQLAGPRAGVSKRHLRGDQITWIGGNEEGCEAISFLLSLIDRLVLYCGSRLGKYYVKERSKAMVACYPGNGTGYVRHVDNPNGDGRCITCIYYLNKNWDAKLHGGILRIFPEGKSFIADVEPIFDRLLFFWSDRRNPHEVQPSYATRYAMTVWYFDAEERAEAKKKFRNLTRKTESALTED

As to `O=C(O)c1cnn(-c2nc(O)c3c(cnn3C[C@H]3CC[C@H](Oc4ccc(C(F)(F)F)cc4)CC3)n2)c1` [Example 152], the fold induction at 3 µM in the test on Hep3B cells came to 20. Also, the pIC50 – broadly, the negative decadic logarithm of the IC50, by convention in mol/L – on human HIF-PHD3 is 6.85; at human HIF-PHD2, 7.70.
`O=C(O)c1cnn(-c2nc(O)c3c(cnn3Cc3ccc(-c4cccc(F)c4)cc3)n2)c1` [Example 63]: the fold induction at 3 µM with Hep3B cells was 18. In addition, the results for the pIC50 at human HIF-PHD3 and on human HIF-PHD2 were 6.96 and 7.85, respectively.
In the case of `C[C@H](c1ccc(Cl)cc1)n1ncc2nc(-n3cc(C(=O)O)cn3)nc(O)c21` [Example 20], the fold induction at 3 µM in the test with Hep3B cells was determined as 5.5. For the same compound, the results for the pIC50 against human HIF-PHD3 and against human HIF-PHD2 were 5.92 and 7.19, respectively.
For `Cc1ccc(O[C@H]2CC[C@H](Cn3ncc4nc(-n5cc(C(=O)O)cn5)nc(O)c43)CC2)cc1` [Example 151], in that order: 38, 6.66 and 7.89.
For the compound `Cc1cccc(C)c1-c1cccc(Cn2ncc3nc(-n4cc(C(=O)O)cn4)nc(O)c32)c1` [Example 48], the fold induction at 3 µM in the test with Hep3B cells was 6.6. The results for the pIC50 against human HIF-PHD3 and against human HIF-PHD2 were 6.47 and 7.15, respectively.
Consider `O=C(O)c1cnn(-c2nc(O)c3c(cnn3C[C@H]3CC[C@H](C(F)(F)F)CC3)n2)c1` [Example 137], for which the fold induction at 3 µM in the test on Hep3B cells amounted to 9.8. Further, the figures for the negative logarithm of the IC50 (pIC50) on human HIF-PHD3 and against human HIF-PHD2 were 6.59 and 7.70, respectively.
Regarding `O=C(O)c1cnn(-c2nc(O)c3c(n2)c(F)nn3CCC2CCCCC2)c1` [Example 472], the fold induction at 3 µM with Hep3B cells is 2.4. In addition, the pIC50 at human HIF-PHD3 was 6.46; against human HIF-PHD2, 7.77.
In the case of `O=C(O)c1cnn(-c2nc(O)c3c(cnn3CCCOc3cccc4ccccc34)n2)c1` [Example 192], in the test with Hep3B cells, the fold induction at 3 µM was 3.5. Moreover, the pIC50 on human HIF-PHD3 was 6.46; against human HIF-PHD2, 7.55.
For `O=C(O)c1cnn(-c2nc(O)c3c(cnn3Cc3cccc(C(F)(F)F)c3)n2)c1` [Example 9], the fold induction at 3 µM in the test on Hep3B cells turned out to be 2.8. Moreover, the negative-log IC50 (pIC50) is 6.39 at human HIF-PHD3 and 7.48 on human HIF-PHD2.
Turning to `O=C(O)c1cnn(-c2nc(O)c3c(cnn3Cc3cccc(-c4ccccc4)c3F)n2)c1` [Example 52], the fold induction at 3 µM in the test on Hep3B cells was 3.3. In addition, the pIC50 against human HIF-PHD3 is 6.60; against human HIF-PHD2 it was 7.66.
For `CC(C)(C)c1ccc(OCCCn2ncc3nc(-n4cc(C(=O)O)cn4)nc(O)c32)cc1` [Example 178], the fold induction at 3 µM with Hep3B cells was 37. Besides, the pIC50 on human HIF-PHD3 was 6.24; against human HIF-PHD2, 7.62.
As to `Cc1ccc2cc(CCn3ncc4nc(-n5cc(C(=O)O)cn5)nc(O)c43)ccc2c1` [Example 127], the fold induction at 3 µM in the test on Hep3B cells came out at 17. For the same compound, the pIC50 against human HIF-PHD3 is 7.21; on human HIF-PHD2, 8.21.
Turning to `Cc1cc(Cn2ncc3nc(-n4cc(C(=O)O)cn4)nc(O)c32)ccc1-c1ccccc1F` [Example 94], the fold induction at 3 µM with Hep3B cells worked out at 17. The pIC50 against human HIF-PHD3 was 6.52; at human HIF-PHD2 it was 7.19.
In the case of `C[C@@H](c1ccc(-c2ccccc2F)cc1)n1ncc2nc(-n3cc(C(=O)O)cn3)nc(O)c21` [Example 112], the fold induction at 3 µM in the test with Hep3B cells was determined as 28. The pIC50 against human HIF-PHD3 was 7.06; against human HIF-PHD2, 7.89.
With `C[C@@H](c1ccc(-c2ccccc2)cc1)n1ncc2nc(-n3cc(C(=O)O)cn3)nc(O)c21` [Example 110], the fold induction at 3 µM in the test on Hep3B cells came out at 56. The pIC50 at human HIF-PHD3 is 7.20; on human HIF-PHD2 it was 7.57.
For `O=C(O)c1cnn(-c2nc(O)c3c(cnn3Cc3ccc(F)c(Cl)c3)n2)c1` [Example 10], the fold induction at 3 µM with Hep3B cells is 3.4. Further, the pIC50 was 6.62 against human HIF-PHD3 and 7.66 against human HIF-PHD2.
For `O=C(O)c1cnn(-c2nc(O)c3nn(CCCN(c4ccccc4)c4ccccc4)cc3n2)c1` [Example 246], the fold induction at 3 µM in the test on Hep3B cells amounted to 1.8. Further, the results for the pIC50 at human HIF-PHD3 and against human HIF-PHD2 were 6.80 and 7.68, respectively.
The matching figures for `O=C(O)c1cnn(-c2nc(O)c3c(cnn3CCOc3ccc(-c4ccccc4)cc3)n2)c1` [Example 205]: 20, 6.55 and 7.89.
Turning to `Cc1nn([C@@H](C)c2ccc3ccccc3c2)c2c(O)nc(-n3cc(C(=O)O)cn3)nc12` [Example 454], the fold induction at 3 µM with Hep3B cells stood at 2.7. Further, the pIC50 was 6.14 against human HIF-PHD3 and 7.52 against human HIF-PHD2.
Turning to `O=C(O)c1cnn(-c2nc(O)c3nn(CC4CCN(c5ccc(C(F)(F)F)cn5)CC4)cc3n2)c1` [Example 247], the fold induction at 3 µM in the test on Hep3B cells stood at 1.3. The results for the pIC50 against human HIF-PHD3 and against human HIF-PHD2 were 6.57 and 7.77, respectively.
The matching figures for `Cc1ccccc1-c1ccc(Cn2ncc3nc(-n4cc(C(=O)O)cn4)nc(O)c32)cc1F` [Example 102]: 9.8, 6.82 and 7.72.
`O=C(O)c1cnn(-c2nc(O)c3c(cnn3Cc3ccc(-c4cccc(C(F)(F)F)c4)cc3)n2)c1` [Example 65]: the fold induction at 3 µM in the test with Hep3B cells worked out at 20. For the same compound, the pIC50 was 6.74 against human HIF-PHD3 and 7.96 at human HIF-PHD2.
On to `COc1cc(Cn2ncc3nc(-n4cc(C(=O)O)cn4)nc(O)c32)ccc1-c1ccccc1C` [Example 98], for which the fold induction at 3 µM in the test with Hep3B cells is 8.6. For the same compound, the negative-log IC50 (pIC50) is 6.72 against human HIF-PHD3 and 7.70 on human HIF-PHD2.
`CC(C)(Cn1ncc2nc(-n3cc(C(=O)O)cn3)nc(O)c21)Oc1ccc2c(c1)CCCC2` [Example 214]: the fold induction at 3 µM in the test on Hep3B cells is 6.8. For the same compound, the pIC50 on human HIF-PHD3 was 6.66; on human HIF-PHD2 it was 7.77.
Consider `CC(C)(C)c1ccc(OCCn2ncc3nc(-n4cc(C(=O)O)cn4)nc(O)c32)cc1` [Example 204], for which the fold induction at 3 µM in the test with Hep3B cells worked out at 12. Also, the pIC50 at human HIF-PHD3 was 6.19; against human HIF-PHD2, 7.72.
For `O=C(O)c1cnn(-c2nc(O)c3nn(CCc4ccc5ccccc5c4)cc3n2)c1` [Example 243], in that order: 1.6, 6.59 and 7.24.
For the compound `COc1cc(Cn2ncc3nc(-n4cc(C(=O)O)cn4)nc(O)c32)ccc1-c1c(F)cccc1F` [Example 97], in the test with Hep3B cells, the fold induction at 3 µM was 5.2. The pIC50 against human HIF-PHD3 was 6.52; against human HIF-PHD2, 7.47.
As to `O=C(O)c1cnn(-c2nc(O)c3c(n2)c(Cl)nn3Cc2ccc(Br)cc2)c1` [Example 220], the fold induction at 3 µM with Hep3B cells is 4. The pIC50 on human HIF-PHD3 is 6.47; at human HIF-PHD2, 7.85.
With `CCCC(CCC)Cn1ncc2nc(-n3cc(C(=O)O)cn3)nc(O)c21` [Example 495], the fold induction at 3 µM in the test on Hep3B cells turned out to be 18. Moreover, the pIC50 was 6.30 against human HIF-PHD3 and 7.17 at human HIF-PHD2.
For `Cc1ccc(Cn2ncc3nc(-n4cc(C(=O)O)cn4)nc(O)c32)cc1-c1ccccc1` [Example 53], in that order: 3.3, 6.39 and 7.60.
On to `O=C(O)c1cnn(-c2nc(O)c3c(cnn3Cc3ccc(F)c(-c4ccccc4)c3)n2)c1` [Example 51], for which the fold induction at 3 µM in the test on Hep3B cells turned out to be 3.9. Moreover, the pIC50 against human HIF-PHD3 was 6.72; on human HIF-PHD2, 7.47.
`O=C(O)c1cnn(-c2nc(O)c3c(cnn3CCOc3ccccc3C(F)(F)F)n2)c1` [Example 201]: in the test with Hep3B cells, the fold induction at 3 µM worked out at 3.2. For the same compound, the pIC50 against human HIF-PHD3 is 6.07; against human HIF-PHD2, 6.89.
For the compound `O=C(O)c1cnn(-c2nc(O)c3c(cnn3C[C@H]3CC[C@H](Oc4ccccc4F)CC3)n2)c1` [Example 146], the fold induction at 3 µM with Hep3B cells was 2.6. The negative logarithm of the IC50 (pIC50) was 6.52 against human HIF-PHD3 and 7.82 against human HIF-PHD2.
Turning to `O=C(O)c1cnn(-c2nc(O)c3c(cnn3CCCOc3ccc(C(F)(F)F)cc3Cl)n2)c1` [Example 176], in the test with Hep3B cells, the fold induction at 3 µM was 22. Further, the pIC50 is 6.77 on human HIF-PHD3 and 7.72 against human HIF-PHD2.
For `O=C(O)c1cnn(-c2nc(O)c3c(cnn3CCc3ccc(Cl)c(Cl)c3)n2)c1` [Example 115], in that order: 5.1, 6.66 and 7.62.
For `O=C(O)c1cnn(-c2nc(O)c3c(cnn3C[C@H]3CC[C@@H](C(F)(F)F)CC3)n2)c1` [Example 138], in that order: 2.9, 6.22 and 6.80.
For the compound `CCc1ccc2cc(CCn3ncc4nc(-n5cc(C(=O)O)cn5)nc(O)c43)ccc2c1` [Example 128], in the test with Hep3B cells, the fold induction at 3 µM was found to be 168. In addition, the pIC50 at human HIF-PHD3 is 6.74; on human HIF-PHD2 it was 7.92.
As for `O=C(O)c1cnn(-c2nc(O)c3c(cnn3Cc3ccc(-c4ccccc4F)c(F)c3F)n2)c1` [Example 101], the fold induction at 3 µM in the test with Hep3B cells amounted to 12. Besides, the pIC50 against human HIF-PHD3 was 6.92; at human HIF-PHD2 it was 7.82.
For `CC(C)(Cn1ncc2nc(-n3cc(C(=O)O)cn3)nc(O)c21)c1ccc(Cl)cc1` [Example 120], in the test with Hep3B cells, the fold induction at 3 µM was found to be 9.7. For the same compound, the pIC50 was 6.05 on human HIF-PHD3 and 7.27 on human HIF-PHD2.
For the compound `CCc1ccccc1-c1ccc(Cn2ncc3nc(-n4cc(C(=O)O)cn4)nc(O)c32)cc1` [Example 58], the fold induction at 3 µM in the test on Hep3B cells is 9.3. Besides, the negative-log IC50 (pIC50) at human HIF-PHD3 was 7.19; against human HIF-PHD2 it was 7.68.
Consider `O=C(O)c1cnn(-c2nc(O)c3c(n2)c(F)nn3CCC2CCCC2)c1` [Example 471], for which the fold induction at 3 µM with Hep3B cells turned out to be 1.4. The values for the pIC50 against human HIF-PHD3 and on human HIF-PHD2 were 6.77 and 7.82, respectively.
For the compound `C[C@@H](c1ccccc1)n1ncc2nc(-n3cc(C(=O)O)cn3)nc(O)c21` [Example 17], the fold induction at 3 µM with Hep3B cells came to 3.2. Also, the pIC50 is 6.32 on human HIF-PHD3 and 7.19 against human HIF-PHD2.
